Laboratory results reported in US9403702B1, “Commodity water purifier” (A BETTER LIFE WORLDWIDE, LLC, priority 2015, dated 2016).
Read-outs that look alike come from different tables or passages of the source.

How the values were obtained:
[1] = bound to proteins on skin, mucosa, mouth tissue and teeth; cited from earlier work
[2] = test system: gram-positive and gram-negative bacteria; conditions: typical; cited from earlier work
[3] = water, cited from earlier work
[4] = test system: gram-positive and gram-negative bacteria; conditions: in vitro; cited from earlier work
[5] = Solubility in water; type: physicochemical; conditions: inventors' finding for CXC
Source text: Although the biological properties of CX are valuable its engineering properties are somewhat challenging. […] However CX is crystalline, and becomes impermeable when formed into a filter. The impermeability renders the filter properties moot. And even if the filter properties remained intact, the presence of CX in effluent would raise the standard for registration with the EPA and for management of the effluent.
In an effort to resolve that problem, U.S. Pat. No. 7,427,409 discloses use of a hydrate, i.e., CX having 1.3 water molecules per chlorhexidine molecules, and the composition is an amorphous material from which a permeable filter can be manufactured. […] The present invention contemplates use of CXH for any value of n for waters of hydration. However the inventors have discovered an unexpected disadvantage of CXH, namely that a small amount of CXH is eroded from the amorphous solid when fluid passes over or through it and thus exits with the effluent. Any water purifier that allows such emissions must be registered with the EPA as a pesticide, as opposed to a purifier, moreover the maker and/or marketer of the filter would be responsible for the ultimate fate and effects of the CXH after it leaves the filter. Moreover CXH decomposes when heated, and the water of hydration evaporates at 96° C. […]

[H]/N=C(\N/C(=N/[H])NCCCCCCNC(=N)NC(=N)Nc1ccc(Cl)cc1)Nc1ccc(Cl)cc1 [CX, N,N″″1,6-Hexanediylbis[N′-(4-chlorophenyl)(imidodicarbonimidic diamide)]]
persistence of activity [1]: ≥ 48 h
time of uptake of CX into the cells [2]: ≤ 20 s
solubility [3]: practically insoluble
time to kill virtually all gram-positive and gram-negative bacteria [4]: ≤ 30 s

[H]/N=C(\N/C(=N/[H])NCCCCCCNC(=N)NC(=N)Nc1ccc(Cl)cc1)Nc1ccc(Cl)cc1 [CXH, chlorhexidine hydrate]
solubility ([3]; hydrate): essentially insoluble

chlorhexidine citrate [CXC]
solubility [5]: low solubility
